Experimental data taken from PMC13198257, “An aerosolized dual-action autotaxin inhibitor-PPARγ agonist for the treatment of pulmonary fibrosis” (Cell Reports Medicine, 2026).

System: lung gene expression
Assay: RNA sequencing of lung tissue (BLM/EL244 vs BLM)
Assay type: in vivo, mouse
Conditions: lung tissue, BLM/EL244 vs BLM
Procedure: RNA quality was assessed using an Agilent TapeStation 4150 with the High Sensitivity […] ScreenTape (Agilent), according to the manufacturer’s protocols. For library preparation, the QuantSeq 3’mRNA-Seq Library Prep Kit (Lexogen) was used according to manufacturer’s instructions. Briefly, 500 ng of RNA from each sample was used for first-strand synthesis, followed by RNA template removal, and second-strand synthesis initiated by random primers. In-line barcodes were introduced at this step, and this was followed by magnetic bead-based purification. The resulting libraries were amplified for 15 cycles and re-purified, with quantity and quality assessed on a Qubit 4 Fluorometer with the Invitrogen Qubit dsDNA HS Assay and an Agilent Tapestation 4150 with the High Sensitivity D1000 assay kit, respectively. The quantified libraries were pooled equimolarly; 50ng of total library mix was used for Adapter Conversion PCR Amplification using the Universal Library Conversion Kit (App-A), Version: V1.0 (MGI Tech Co., Ltd.), according to the manufacturer’s instructions.
The quantity and quality of the purified adapter conversion PCR (AC-PCR) product were evaluated on a Qubit 4 Fluorometer with the Invitrogen Qubit dsDNA HS Assay and on an Agilent Tapestation 4150 with the High Sensitivity D1000 assay kit, respectively. This was followed by DNA denaturation, Single-Strand Circularisation, Enzymatic Digestion, Enzymatic Digestion Product Cleanup and Quality Control steps on 1 pmol of AC-PCR product, according to the Universal Library Conversion Kit (App-A) User Manual (Version: A3).
Finally, 60 fmol of ssCirDNA were used for DNB preparation and sequencing on a DNBSEQ-G400 platform at the BSRC Alexander Fleming Genomics Facility, using a G400 App-A FCS SE100 High-throughput Sequencing Set (MGI Tech Co., Ltd.), according to the manufacturer’s instructions.
Alignment of the FASTQ files was performed against the mouse genome build mm10 using a custom Bash script.[143] Read counting on the 3′ UTRs and differential expression analysis were conducted using the metaseqR2 bioconductor package.[144] Genes corresponding to the following biotypes were excluded: polymorphic_pseudogene, processed_transcript, pseudogene, IG_V_pseudogene, misc_RNA, IG_C_gene, IG_J_gene, IG_D_gene, IG_LV_gene, TR_V_gene, TR_V_pseudogene, TEC, and processed_pseudogene. Gene counts were normalized with DESEQ[145] through metaseqR2. Genes with more than 10 counts in at least 50% of the samples were kept for further processing. For differential expression analysis, the PANDORA algorithm[146] was used to estimate a meta p-value integrating the results from the DESEQ, DESEQ2,[147] edgeR,[148] limma,[149] NBPSeq,[150] and NOISeq[151] algorithms. All additional parameters were set to default values.
Pathway enrichment analysis was performed for the Gene Ontology Biological process (BP) and Molecular Function (MF) terms through GeneCodis 4.[152] The volcano plots, scatterplots, Venn diagrams, and dot plots were generated using the ggplot2 Bioconductor package.

O=C1NC(=O)C(Cc2ccc(OCCC3CCN(C(=O)OCc4cc(Cl)cc(Cl)c4)CC3)cc2)S1 (stereo not shown) [EL244, 3,5-dichlorobenzyl 4-(2-(4-((2,4-dioxothiazolidin-5-yl)methyl)phenoxy)ethyl)piperidine-1-carboxylate]
Cdk19 log2 nFC: -0.64
Cdk19 nFC: 0.64
Cdkn3 log2 nFC: -1.68
Cdkn3 nFC: 0.31
Cenpe log2 nFC: -1.70
Cenpe nFC: 0.31
Cenpf log2 nFC: -2.20
Cenpf nFC: 0.22
Cenph log2 nFC: -2.04
Cenph nFC: 0.24
Cenpk log2 nFC: -1.51
Cenpk nFC: 0.35
Cenpn log2 nFC: -1.74
Cenpn nFC: 0.30
Cenps log2 nFC: -1.80
Cenps nFC: 0.29
Cfp log2 nFC: -0.83
Cfp nFC: 0.56
Chl1 log2 nFC: -3.49
Chl1 nFC: 0.09
Chsy3 log2 nFC: -1.56
Chsy3 nFC: 0.34
Ckap2l log2 nFC: -2.06
Ckap2l nFC: 0.24
Ckap2 log2 nFC: -2.44
Ckap2 nFC: 0.18
Ckap4 log2 nFC: -0.63
Ckap4 nFC: 0.65
Ckb log2 nFC: -0.61
Ckb nFC: 0.65
Cks1b log2 nFC: -1.54
Cks1b nFC: 0.34
Clca3a1 log2 nFC: -2.06
Clca3a1 nFC: 0.24
Cldn4 log2 nFC: -1.99
Cldn4 nFC: 0.25
Clmp log2 nFC: -0.78
Clmp nFC: 0.58
Clspn log2 nFC: -1.79
Clspn nFC: 0.29
Clu log2 nFC: -0.81
Clu nFC: 0.57
Cmtm3 log2 nFC: -0.60
Cmtm3 nFC: 0.66
Col1a1 log2 nFC: -2.02
Col1a1 nFC: 0.25
Col3a1 log2 nFC: -1.54
Col3a1 nFC: 0.34
Col4a1 log2 nFC: -0.75
Col4a1 nFC: 0.59
Col4a2 log2 nFC: -0.64
Col4a2 nFC: 0.64
Col5a1 log2 nFC: -1.52
Col5a1 nFC: 0.35
Col5a2 log2 nFC: -1.48
Col5a2 nFC: 0.36
Col5a3 log2 nFC: -1.53
Col5a3 nFC: 0.35
Col6a2 log2 nFC: -0.67
Col6a2 nFC: 0.63
Col6a3 log2 nFC: -0.77
Col6a3 nFC: 0.59
Cped1 log2 nFC: 0.63
Cped1 nFC: 1.55
Cthrc1 log2 nFC: -2.00
Cthrc1 nFC: 0.25
Ctnnbip1 log2 nFC: -0.62
Ctnnbip1 nFC: 0.65
Ctsb log2 nFC: -0.75
Ctsb nFC: 0.59
Ctsh log2 nFC: -0.63
Ctsh nFC: 0.64
Cxcl9 log2 nFC: -1.62
Cxcl9 nFC: 0.32
Cxcl10 log2 nFC: -1.90
Cxcl10 nFC: 0.27
Cxcl12 log2 nFC: -0.67
Cxcl12 nFC: 0.63
Cxcl13 log2 nFC: -1.42
Cxcl13 nFC: 0.37
Cyth4 log2 nFC: -0.71
Cyth4 nFC: 0.61
Cytip log2 nFC: 0.63
Cytip nFC: 1.54
Ddr1 log2 nFC: -0.66
Ddr1 nFC: 0.63
Dnmt1 log2 nFC: -0.84
Dnmt1 nFC: 0.56
Dtl log2 nFC: -1.94
Dtl nFC: 0.26
Dtx4 log2 nFC: -0.70
Dtx4 nFC: 0.61
E2f8 log2 nFC: -1.57
E2f8 nFC: 0.34
Ect2 log2 nFC: -1.89
Ect2 nFC: 0.27
Efnb2 log2 nFC: 0.61
Efnb2 nFC: 1.53
Eln log2 nFC: -2.07
Eln nFC: 0.24
Emid1 log2 nFC: -0.78
Emid1 nFC: 0.58
Emilin1 log2 nFC: -0.84
Emilin1 nFC: 0.56
Emp1 log2 nFC: -0.70
Emp1 nFC: 0.62
Enc1 log2 nFC: -0.80
Enc1 nFC: 0.57
Epas1 log2 nFC: 0.67
Epas1 nFC: 1.59
Epb41 log2 nFC: 0.61
Epb41 nFC: 1.52
Espl1 log2 nFC: -1.71
Espl1 nFC: 0.31
Evi2a log2 nFC: -0.82
